As a reminder, the inhibition is how much of the control response was suppressed. By Cmax is commonly meant the highest concentration seen after dosing. As usually defined, the IC50 is the concentration needed to halve the response being measured. Read a high IC50 as weaker potency in that assay.

The target of one data set is T1, CBR1 (Homo sapiens, UniProt P16152).
T1 construct: made in house; host or cells: Escherichia coli
T1 sequence (P16152 1-277): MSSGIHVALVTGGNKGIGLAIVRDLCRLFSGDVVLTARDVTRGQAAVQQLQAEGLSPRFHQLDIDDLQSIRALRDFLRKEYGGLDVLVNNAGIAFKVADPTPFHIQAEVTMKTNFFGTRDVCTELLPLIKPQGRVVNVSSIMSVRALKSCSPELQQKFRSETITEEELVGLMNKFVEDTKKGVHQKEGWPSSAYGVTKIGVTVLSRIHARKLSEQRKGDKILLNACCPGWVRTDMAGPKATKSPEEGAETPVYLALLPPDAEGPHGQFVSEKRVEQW
Put plainly: Screening for inhibitory activity on recombinant CRE: CBR1. Type of data set: biochemical. The settings on record: 50 μM inhibitor concentration; mean ± SD, three experiments. From the text:
(§1) Human recombinant carbonyl reducing enzymes CBR1, AKR1A1, AKR1B1, AKR1B10, and AKR1C3 were expressed and isolated by the Escherichia coli expression system as described previously.

In a further data set the target is T2, AKR1A1 (Homo sapiens, UniProt P14550).
T2 construct: made in house; host or cells: Escherichia coli
T2 sequence (P14550 1-325): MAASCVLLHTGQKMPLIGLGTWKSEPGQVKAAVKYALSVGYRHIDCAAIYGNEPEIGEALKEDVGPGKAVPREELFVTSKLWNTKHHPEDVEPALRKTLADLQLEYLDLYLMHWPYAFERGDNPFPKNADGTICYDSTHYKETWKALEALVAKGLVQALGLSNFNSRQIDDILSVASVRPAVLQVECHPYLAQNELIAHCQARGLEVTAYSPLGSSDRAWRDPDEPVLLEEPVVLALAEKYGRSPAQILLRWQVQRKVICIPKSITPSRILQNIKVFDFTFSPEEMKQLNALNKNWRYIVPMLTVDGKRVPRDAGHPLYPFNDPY
Put plainly: Screening for inhibitory activity on recombinant CRE: AKR1A1. Type of data set: biochemical. The settings on record: 50 μM inhibitor concentration; mean ± SD, three experiments.
Excerpt: as §1

For the next data set, the target named is T3, AKR1B1 (Homo sapiens, UniProt P15121).
T3 construct: made in house; host or cells: Escherichia coli
Kind of data set: Screening for inhibitory activity on recombinant CRE: AKR1B1. Type of data set: biochemical. The settings on record: 50 μM inhibitor concentration; mean ± SD, three experiments.
Excerpt: as §1

In the next data set the test system is HL-60 cells. Kind of data set: Sub-G1 fraction of HL-60 parental/control cells. Type of data set: cell-based, human. The settings on record: single drug vs untreated control. The procedure:
(§2) The fluorescent substrates daunorubicin (0.2 µM) or mitoxantrone (1 µM) were then added and the suspensions incubated for 4 h at 37 °C and 5% CO2. […] The percentage of cells displaying hypodiploid DNA content is presented as a sub-G1 region of a PI histogram.

The target of data set [1] is T4, AKR1C3 (Homo sapiens, UniProt P42330).
T4 sequence (P42330 1-323): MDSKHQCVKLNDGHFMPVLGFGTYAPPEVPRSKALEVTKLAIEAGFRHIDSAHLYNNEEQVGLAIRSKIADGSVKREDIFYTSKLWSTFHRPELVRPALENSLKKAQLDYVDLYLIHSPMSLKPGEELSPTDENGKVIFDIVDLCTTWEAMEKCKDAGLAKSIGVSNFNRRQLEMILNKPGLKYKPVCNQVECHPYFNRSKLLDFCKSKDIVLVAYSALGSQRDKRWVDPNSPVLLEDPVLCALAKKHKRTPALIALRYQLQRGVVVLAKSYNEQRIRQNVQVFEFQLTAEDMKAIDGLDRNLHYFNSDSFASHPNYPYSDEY
Put plainly: Screening for inhibitory activity on recombinant CRE: AKR1C3. The settings on record: 50 μM inhibitor concentration; mean ± SD, three experiments. The class given is biochemical. More on the design: made in house; host or cells: Escherichia coli.
Excerpt: as §1

The conditions of data set [2]: cited from earlier work.
Data set [3] has as its system PBMC of AML patients. Put plainly: Apoptosis detection (annexin V/PI) in PBMC of AML patients. The class given is cell-based, human. The settings on record: vs untreated control, 4 h, cmax concentrations. The protocol: PBMC were isolated from whole blood using Ficoll-Paque PLUS gradient solution (GE Healthcare, Sweden) according to the manufacturer’s instructions. The mononuclear cells thus obtained were washed twice in 6 ml PBS and either transferred to RPMI with 10% FBS and immediately used for experiments or stored frozen in liquid nitrogen. […] The stated concentrations correspond with cmax plasma levels of the respective drugs. […] The cells were then washed in ice-cold PBS and resuspended in 195 µL of 2% FBS in PBS. The anti-human CD34/PE antibody 4H11 (Invitrogen, Carlsbad, CA, USA) was added and incubated on ice for 30 min. This was followed by washing and resuspending in 1 × ABB and staining by annexin V/FITC conjugate as described above. After subsequent staining with PI, the samples were analyzed using the SONY SA3800 spectral cell analyzer.

Data set [4] addresses T5, ABCG2 (Homo sapiens, UniProt Q9UNQ0).
T5 sequence (Q9UNQ0 1-655): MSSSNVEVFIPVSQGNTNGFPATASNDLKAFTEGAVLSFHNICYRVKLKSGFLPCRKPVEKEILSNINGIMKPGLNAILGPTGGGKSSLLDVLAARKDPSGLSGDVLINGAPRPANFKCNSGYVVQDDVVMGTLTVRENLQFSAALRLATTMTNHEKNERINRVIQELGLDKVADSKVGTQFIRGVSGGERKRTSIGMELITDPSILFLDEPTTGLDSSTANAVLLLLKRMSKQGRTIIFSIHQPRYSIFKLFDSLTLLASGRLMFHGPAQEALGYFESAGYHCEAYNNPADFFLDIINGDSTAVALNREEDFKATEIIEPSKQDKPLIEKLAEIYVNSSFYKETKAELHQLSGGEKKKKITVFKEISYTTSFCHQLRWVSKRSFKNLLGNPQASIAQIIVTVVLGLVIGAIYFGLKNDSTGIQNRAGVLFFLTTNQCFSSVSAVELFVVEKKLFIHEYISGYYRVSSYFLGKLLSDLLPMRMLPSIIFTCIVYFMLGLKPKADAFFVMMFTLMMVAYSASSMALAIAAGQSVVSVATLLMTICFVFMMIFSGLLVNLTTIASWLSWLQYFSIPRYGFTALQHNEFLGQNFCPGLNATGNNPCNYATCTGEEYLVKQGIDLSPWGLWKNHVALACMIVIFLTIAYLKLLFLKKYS
Put plainly: Mitoxantrone accumulation in HL-60 ABCG2 cells.
Procedure: (§3) LY335979 (1 µM) and Ko143 (1 µM) were used as ABCB1 and ABCG2 model inhibitors. After 15 min, daunorubicin (HL-60 and HL-60 ABCB1) or mitoxantrone (HL-60 and HL-60 ABCG2) was added for 1 h at a final concentration of 1 µM (37 °C, 5% CO2). Subsequently, the samples were centrifuged at 150 × g for 5 min, washed in 500 µL ice-cold phosphate buffered saline (PBS), then resuspended again in 500 µL ice-cold PBS and promptly analyzed with a BD FACSCanto II flow cytometer (BD Biosciences, San Jose, CA, USA) using excitation/emission wavelengths 488/670 nm for daunorubicin and 633/660 nm for mitoxantrone.
(§4) The data were statistically analyzed in GraphPad Prism 8.0.1 (GraphPad Software, Inc., San Diego, CA, USA). One-way ANOVA with Dunnett’s post hoc test or Student’s t-test was used for results obtained in vitro, and the nonparametric Mann–Whitney test was used to analyze ex vivo experiments. Half-maximal inhibitory concentrations (IC50) were calculated using sigmoidal Hill kinetics while showing also the corresponding 95% confidence intervals. The correlation between expression and function of ABCB1 and ABCG2 was determined by linear regression. All differences were considered significant at p < 0.05.

For the next data set, the target named is T6, AKR1B10 (Homo sapiens, UniProt O60218).
T6 construct: made in house; host or cells: Escherichia coli
Put plainly: Screening for inhibitory activity on recombinant CRE: AKR1B10. The settings on record: 50 μM inhibitor concentration; mean ± SD, three experiments. The class given is biochemical.
Excerpt: as §1

The next data set concerns HL-60 ABCB1 cells. Kind of data set: Sub-G1 fraction of HL-60 ABCB1 cells. The settings on record: 4 h. Type of data set: cell-based, human. The protocol:
as §2

Data set [5] concerns PBMC of AML patients. Kind of data set: Mitoxantrone accumulation in PBMC of AML patients. Type of data set: cell-based, human. The settings on record: 1 µM mitoxantrone, 4 h; for increase of median mitoxantrone accumulation: cmax concentrations, vs untreated control; for effect on median mitoxantrone accumulation: CD34− PBMC, cmax concentrations (0.5 µM abemaciclib, 0.5 µM palbociclib, 7.5 µM ribociclib).

In data set [6] the target is T4, AKR1C3. Put plainly: Inhibitory assay on HCT116 cells with transient AKR1C3 expression (daunorubicin to daunorubicinol). Type of data set: cell-based. The settings on record: HCT116 transfected with AKR1C3, 1 µM daunorubicin, 0.1-10 μM drug, 4 h. The procedure:
HCT116 cells were seeded (1.25 × 10^5 cells/well) in 24-well plates and after 24 h in culture transfected with mammalian pCI_AKR1C3 plasmid as described previously. The expression of recombinant AKR1C3 was verified by western blotting using rabbit polyclonal anti-AKR1C3 antibody (ab84327, Abcam, Cambridge, UK). Uniformity of transfection was assumed only when <10% difference was observed between experiments regarding the expression of pCI plasmid containing GFP reporter gene. […] After 4 h incubation (37 °C, 5% CO2), medium was collected, cells were lysed, and resulting samples were handled and analyzed by ultra high-performance liquid chromatography as described previously.

For data set [7], the system named is HL-60 ABCG2 cells. Kind of data set: Annexin V/PI staining of HL-60 ABCG2 cells. The settings on record: mitoxantrone alone 1 µM, 4 h.
Procedure: The cell suspension was preincubated for 15 min, and then, 1 µM mitoxantrone was added. Mitoxantrone, a dual substrate of ABCB1 and ABCG2, was chosen as resistance victim drug for the experiment because there are no fluorescence spillovers with propidium iodide (PI), which limit the usage of daunorubicin in this setup. The cells were incubated for 4 h at 37 °C and 5% CO2, washed and subsequently resuspended in 1 × annexin binding buffer (ABB, 195 µL) followed by addition of 5 µL of annexin V/fluorescein isothiocyanate (FITC) conjugate. The suspension was incubated in darkness for 10 min. Cells were then washed once in 1 × ABB and resuspended in 400 µL of ABB. Prior to the measurement, 10 µL of PI solution was added and cells were analyzed by BD FACSCanto II flow cytometer using excitation/emission wavelengths 488/530 nm and 488/670 for FITC and PI, respectively.
Data set [8] has as its system HL-60 ABCG2 cells. Put plainly: Sub-G1 fraction of HL-60 ABCG2 cells. The settings on record: mitoxantrone alone 1 µM, 4 h.
Procedure: Estimation of fractional DNA content in the late stage of apoptosis was additionally used to clarify the results of annexin V/PI staining. […] The fluorescent substrates daunorubicin (0.2 µM) or mitoxantrone (1 µM) were then added and the suspensions incubated for 4 h at 37 °C and 5% CO2. Afterwards, the cells were resuspended in 2% FBS in PBS and fixed with ice-cold 70% ethanol for at least 30 min at −20 °C. After fixation, the cells were diluted and washed twice with 2% FBS in PBS. Then, 50 µL of RNAse A (100 µg/mL) was applied to ensure that only DNA would be present. Next, 200 µL of PI (50 µg/mL) was added to stain the DNA content of the cells. The samples were incubated for 1 h at 37 °C and 5% CO2. Analysis was performed using a SONY SA3800 spectral cell analyzer. The percentage of cells displaying hypodiploid DNA content is presented as a sub-G1 region of a PI histogram.
The next data set has as its target ABCB1 (Homo sapiens, UniProt P08183). Put plainly: Daunorubicin accumulation in HL-60 ABCB1 cells.
In data set [9] the target is T5, ABCG2. The settings on record: 1 h.
Procedure: as §3, §4
Setting [10] is: CDKI (1, 10, 25 µM abemaciclib, palbociclib, ribociclib) + 0.2 µM daunorubicin.

The structures appear in SMILES notation. Where two headings read alike, the source gives them in different places.

T6 sequence (O60218 whole entry): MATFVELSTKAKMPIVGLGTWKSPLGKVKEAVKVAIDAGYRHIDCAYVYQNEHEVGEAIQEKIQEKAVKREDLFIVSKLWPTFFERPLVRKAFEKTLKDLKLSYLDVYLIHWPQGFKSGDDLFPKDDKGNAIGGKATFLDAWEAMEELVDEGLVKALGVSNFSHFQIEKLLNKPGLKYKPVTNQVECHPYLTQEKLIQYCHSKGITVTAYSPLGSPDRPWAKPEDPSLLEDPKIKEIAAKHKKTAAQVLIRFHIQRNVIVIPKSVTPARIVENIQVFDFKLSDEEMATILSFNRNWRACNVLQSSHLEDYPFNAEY
ABCB1, sequence (P08183 whole entry): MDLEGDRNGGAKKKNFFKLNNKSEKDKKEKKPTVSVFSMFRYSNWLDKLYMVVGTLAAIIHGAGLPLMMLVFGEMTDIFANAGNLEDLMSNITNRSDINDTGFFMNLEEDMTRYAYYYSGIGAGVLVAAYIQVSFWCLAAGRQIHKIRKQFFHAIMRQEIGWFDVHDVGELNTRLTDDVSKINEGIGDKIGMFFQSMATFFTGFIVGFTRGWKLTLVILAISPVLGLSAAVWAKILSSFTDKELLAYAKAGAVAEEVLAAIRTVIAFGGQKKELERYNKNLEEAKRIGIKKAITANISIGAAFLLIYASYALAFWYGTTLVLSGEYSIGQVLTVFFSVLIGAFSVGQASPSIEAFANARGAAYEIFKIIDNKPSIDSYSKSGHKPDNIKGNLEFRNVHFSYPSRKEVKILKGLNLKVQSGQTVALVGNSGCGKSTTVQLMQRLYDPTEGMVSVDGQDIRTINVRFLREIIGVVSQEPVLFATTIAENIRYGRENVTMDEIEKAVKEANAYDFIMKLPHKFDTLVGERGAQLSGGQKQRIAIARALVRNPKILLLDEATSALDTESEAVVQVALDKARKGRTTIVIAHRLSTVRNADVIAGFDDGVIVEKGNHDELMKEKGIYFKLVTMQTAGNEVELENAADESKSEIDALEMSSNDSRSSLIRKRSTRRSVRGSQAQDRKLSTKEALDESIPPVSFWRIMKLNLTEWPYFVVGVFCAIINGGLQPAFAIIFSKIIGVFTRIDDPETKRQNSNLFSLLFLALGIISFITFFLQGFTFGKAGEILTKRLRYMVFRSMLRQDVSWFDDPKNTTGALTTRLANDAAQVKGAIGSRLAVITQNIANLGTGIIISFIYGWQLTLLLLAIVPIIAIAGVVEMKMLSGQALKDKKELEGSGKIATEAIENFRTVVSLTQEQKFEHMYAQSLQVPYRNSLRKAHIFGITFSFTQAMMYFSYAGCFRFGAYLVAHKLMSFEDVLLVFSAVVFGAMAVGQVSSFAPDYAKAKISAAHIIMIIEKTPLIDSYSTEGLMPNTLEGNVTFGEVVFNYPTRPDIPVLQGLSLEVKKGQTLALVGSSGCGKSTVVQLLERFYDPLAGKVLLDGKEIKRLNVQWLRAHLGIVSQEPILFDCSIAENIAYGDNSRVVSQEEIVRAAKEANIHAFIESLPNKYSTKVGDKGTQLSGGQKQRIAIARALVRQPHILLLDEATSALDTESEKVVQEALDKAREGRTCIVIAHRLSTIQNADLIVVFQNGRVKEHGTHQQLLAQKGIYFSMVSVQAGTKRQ

In the case of `CN(C)C(=O)c1cc2cnc(Nc3ccc(N4CCNCC4)cn3)nc2n1C1CCCC1` [Ribociclib, ribociclib], the inhibition at 50 µM on CBR1 was found to be 0%; at AKR1A1, 0%; on AKR1B1, 4.58 ± 2.41%; on AKR1C3 [1] it was 36.2 ± 2.83%; on AKR1B10 it was 7.41 ± 1.08%. The “proapoptotic effect (sub-G1) as a single drug” value (from here on “proapoptotic effect (sub-G1)”) in the data set with HL-60 cells was “Neither abemaciclib, palbociclib, nor ribociclib caused a significant proapoptotic effect”. The highest concentration (Cmax) in [2] (human, in vivo) was 7500 nM. Also, the “changes in PBMC apoptosis after single drug exposure” value (shortened to “changes in PBMC apoptosis”) with PBMC of AML patients [3] was “no significant changes”. Further, the IC50 at ABCG2 [4] is 26.9 µM. The sub-G1 fraction with HL-60 ABCB1 cells (setting [10]) came to 35.6%. The “increase of median mitoxantrone accumulation” value (“increase” for short) with PBMC of AML patients [5] (CD34+ PBMC) is 60.5%; in the data set on PBMC of AML patients [5] (FLT3-ITD− population) it was 28.6%. Besides, the “effect on median mitoxantrone accumulation” value in the data set with PBMC of AML patients [5] is “did not affect”. Further, on AKR1C3 [6], the “changes in intracellular reduction of daunorubicin to daunorubicinol” value (“changes in intracellular reduction” for short) was “did not show any changes”.
Consider `O=C1c2c(O)ccc(O)c2C(=O)c2c(NCCNCCO)ccc(NCCNCCO)c21` [mitoxantrone], for which the “annexin V+ population” value with HL-60 ABCG2 cells [7] is 25.2%. The compound also came in with a sub-G1 fraction with HL-60 ABCG2 cells [8] of 46.2%.
`COc1cccc2c1C(=O)c1c(O)c3c(c(O)c1C2=O)C[C@@](O)(C(C)=O)C[C@@H]3O[C@H]1C[C@H](N)[C@H](O)[C@H](C)O1` [daunorubicin] came in with a sub-G1 fraction in the data set with HL-60 ABCB1 cells (daunorubicin alone 0.2 µM) of 13.1%.
For `CC(=O)c1c(C)c2cnc(Nc3ccc(N4CCNCC4)cn3)nc2n(C2CCCC2)c1=O` [Palbociclib, palbociclib], the inhibition at 50 µM was determined as 0% at CBR1; 0% on AKR1A1; 5.54 ± 3.4% at AKR1B1; 23.5 ± 6.67% on AKR1C3 [1]; 0% on AKR1B10. Moreover, in the data set with HL-60 cells, the “proapoptotic effect (sub-G1)” value is given as “Neither abemaciclib, palbociclib, nor ribociclib caused a significant proapoptotic effect”. Besides, the half-maximal inhibitory concentration (IC50) was 6.65 µM against ABCB1 and 45.5 µM at ABCG2 [4]. The Cmax in [2] (read-out: cmax plasma levels, standard dosing, concentration used in PBMC experiments) is 500 nM. In addition, the “changes in PBMC apoptosis” value in the data set on PBMC of AML patients [3] was “no significant changes”. Further, the “ABCG2 IC50 fold higher than cmax” value on ABCG2 [9] is listed as “approximately 100 fold”. The “fold lower potency toward ABCG2 compared to ABCB1” value on ABCG2 [9] is listed as 6.8 fold. For the same compound, the sub-G1 fraction with HL-60 ABCB1 cells (setting [10]) is 30.7%. Moreover, the figures for the “increase” value with PBMC of AML patients [5] (CD34+ PBMC) and in the data set on PBMC of AML patients [5] (FLT3-ITD− population) were 33.4% and 3.58%, respectively. For the same compound, the “effect on median mitoxantrone accumulation” value with PBMC of AML patients [5] was “did not affect”. For the same compound, the “changes in intracellular reduction” value at AKR1C3 [6] is “did not show any changes”.
In the case of `CCN1CCN(Cc2ccc(Nc3ncc(F)c(-c4cc(F)c5nc(C)n(C(C)C)c5c4)n3)nc2)CC1` [Abemaciclib, abemaciclib], the inhibition at 50 µM came out at 0% at CBR1; 0% on AKR1A1; 0% at AKR1B1; 26.3 ± 1.3% on AKR1C3 [1]; 2.08 ± 0.4% at AKR1B10. The “proapoptotic effect (sub-G1)” value in the data set on HL-60 cells is “Neither abemaciclib, palbociclib, nor ribociclib caused a significant proapoptotic effect”. Moreover, the IC50 against ABCB1 came out at 0.354 µM; at ABCG2 [4], 2.98 µM. Also, in data set [2] (human, in vivo), the Cmax is 500 nM. The “changes in PBMC apoptosis” value with PBMC of AML patients [3] was “no significant changes”. For the same compound, the “fold lower potency toward ABCG2 compared to ABCB1” value on ABCG2 [9] is given as 8.4 fold. Besides, in the data set on HL-60 ABCB1 cells (setting [10]), the sub-G1 fraction is listed as 47.5%. Further, the “increase” value in the data set on PBMC of AML patients [5] (CD34+ PBMC) is reported as 37.4%; in the data set with PBMC of AML patients [5] (FLT3-ITD− population), 16.4%. Moreover, in the data set on PBMC of AML patients [5], the “effect on median mitoxantrone accumulation” value is “did not affect”. The “changes in intracellular reduction” value at AKR1C3 [6] was “did not show any changes”.

(Values after article PMC7352292, “Targeting Pharmacokinetic Drug Resistance in Acute Myeloid Leukemia Cells with CDK4/6 Inhibitors” (Cancers, 2020).)
